Molecules are shown by their SMILES.

The text below walks through data of publication PMC9527238, “Glutamate and GABAA receptor crosstalk mediates homeostatic regulation of neuronal excitation in the mammalian brain” (Signal Transduction and Targeted Therapy, 2022).

Format in all cases: cell-based
Experiment [1] concerns the target T1, αβE181Dγ GABAAR (Rattus norvegicus, UniProt P62813+P63138, E206D).
T1 construct: expressed in transfected cells; host or cells: HEK293
Nature of the experiment: Patch clamp, HEK293, mutant GABAAR. Conditions: HEK293, read-out: Glutamate potentiation of GABA currents, % of control, normalized to wild-type α1β2γ2. The text has this: (§1) To further determine the relative significance between the electrostatic and the side chain steric arrangements of these critical amino acid residues in their interaction with glutamate, we next studied the effects of substitution of these amino acids with amino acids of various sizes or charges on the glutamate potentiation. We substituted α1K104, α1E137, α1K155, or β2E181 with […], a non-charged amino acid, in order to perturb the electrostatic accessibility of glutamate to the binding pocket.
(§2) Fig. 4 Property characterization of glutamate binding sites in HEK cells expressing wild-type or mutated αβγ GABAARs. a, b The effects of electrostatic charge and/or size of the pocket-forming residues on glutamate-induced functional modulation.
(§3) HEK293 cells were cultured in DMEM (Invitrogen) supplemented with 10% fetal bovine serum. Cells were grown to 40–60% confluence and transiently transfected using Lipofectamine 2000 (Invitrogen) with 1:0.5–1 plasmid/lipid ratio. Cells were transfected with a pBK-CMV expression vector containing a rat recombinant GABAAR α, β or γ subunits. Co-transections were done with a plasmid ratio of 1:1 αβ and 2:2:1 for αβγ subunit combinations, respectively. pcDNA3.1-GFP was also co-transfected along with GABAAR subunits as a transfected marker in order to facilitate the visualization of the transfected cells during electrophysiological experiments. Cells were re-plated on glass coverslips after 15–20 h transfection and were cultured for an additional 15–24 h before whole-cell patch-clamp recordings.
(§4) The site-directed mutagenesis of α, β or γ subunits were performed by using the QuikChange method (Stratagene). […] Wild-type or mutant subunits were transfected in HEK293 cells and subjected to electrophysiology examinations.
(§5) Whole-cell patch-clamp recordings were performed under voltage-clamp mode using an Axopatch 200B or 1D patch-clamp amplifier (Molecular Devices) on HEK293 cells and cultured neurons. Whole-cell currents were recorded at a holding potential of −60 mV, and signals were filtered at 2 kHz, digitized at 10 kHz (Digidata 1322 A). Recording pipettes (3–5 MΩ) were filled with the intracellular solution that contained (mM): CsCl 140, HEPES 10, Mg-ATP 4, QX-314 5, pH 7.20; osmolarity, 290–295 mOsm. BAPTA (10 mM) was added in the intracellular solution. The coverslips were continuously superfused with the extracellular solution containing (mM): NaCl 140, KCl 5.4, HEPES 10, MgCl2 1.0, CaCl2 1.3, glucose 20, pH 7.4; osmolarity, 305–315 mOsm. […] Dose–response curves were created by fitting data to Hill equation: I = Imax/[1 + (EC50/[A])^n], where I is the current, Imax is the maximum current, [A] is a given concentration of agonist, n is the Hill coefficient. […] All experiments were performed at room temperature.

Experiment [2] deals with T2, αE137Wβγ GABAAR (Rattus norvegicus, UniProt P62813+P63138, E164W).
T2 construct: expressed in transfected cells; host or cells: HEK293
Nature of the experiment: Patch clamp, HEK293, mutant GABAAR. Conditions: HEK293, read-out: Glutamate potentiation of GABA currents, % of control, normalized to wild-type α1β2γ2.
From the text: as §1, §2, §3, §4, §5
(In patch-clamp work, channel activity is measured electrically.)

In experiment [3] the target is T3, αK104Wβγ GABAAR (Rattus norvegicus, UniProt P62813+P63138, K131W).
T3 construct: expressed in transfected cells; host or cells: HEK293
Nature of the experiment: Patch clamp, HEK293, mutant GABAAR. Conditions: HEK293, read-out: Glutamate potentiation of GABA currents, % of control, normalized to wild-type α1β2γ2.
From the text: as §1, §2, §3, §4, §5

The target of experiment [4] is T4, αE137Dβγ GABAAR (Rattus norvegicus, UniProt P62813+P63138, E164D).
T4 construct: expressed in transfected cells; host or cells: HEK293
The experiment in a line: Patch clamp, HEK293, mutant GABAAR. Conditions: HEK293, read-out: Glutamate potentiation of GABA currents, % of control, normalized to wild-type α1β2γ2.
From the text: as §1, §2, §3, §4, §5

Experiment [5] deals with T5, αK155Rβγ GABAAR (Rattus norvegicus, UniProt P62813+P63138, K182R).
T5 construct: expressed in transfected cells; host or cells: HEK293
Nature of the experiment: Patch clamp, HEK293, mutant GABAAR. Conditions: HEK293, read-out: Glutamate potentiation of GABA currents, % of control, normalized to wild-type α1β2γ2.
From the text: as §1, §2, §3, §4, §5

The target in experiment [6] is T6, αβE181Wγ GABAAR (Rattus norvegicus, UniProt P62813+P63138, E206W).
T6 construct: expressed in transfected cells; host or cells: HEK293
Nature of the experiment: Patch clamp, HEK293, mutant GABAAR. Conditions: HEK293, read-out: Glutamate potentiation of GABA currents, % of control, normalized to wild-type α1β2γ2.
From the text: as §1, §2, §3, §4, §5

Experiment [7] concerns the target T7, αK155Wβγ GABAAR (Rattus norvegicus, UniProt P62813+P63138, K182W).
T7 construct: expressed in transfected cells; host or cells: HEK293
Nature of the experiment: Patch clamp, HEK293, mutant GABAAR. Conditions: HEK293, read-out: Glutamate potentiation of GABA currents, % of control, normalized to wild-type α1β2γ2.
From the text: as §1, §2, §3, §4, §5

Experiment [8] has as its target T8, α1/β3/γ2 GABAAR (Rattus norvegicus, UniProt P62813+P63079).
T8 construct: expressed in transfected cells; host or cells: HEK293
Nature of the experiment: Patch clamp, HEK293, β3-containing GABAAR. Conditions: wild-type α1/β3/γ2.

In experiment [9] the target is T9, αβE181G GABAAR (Rattus norvegicus, UniProt P62813+P63138, E206G).
T9 construct: expressed in transfected cells; host or cells: HEK293
The experiment in a line: Patch clamp, HEK293, mutant α1β2 GABAAR. Conditions: HEK293, read-out: Glutamate potentiation of GABA currents, % of control, normalized to wild-type α1β2. On the procedure: (§6) The subunits are color-coded individually. The boxed regions are further enlarged in the middle panels, highlighting the predicted glutamate binding pocket in the α+ and β− interface, just below the loop C. […] Relative potentiation was obtained by normalizing potentiation observed in the mutated receptor to that in the respective wild-type receptor.
as §3, §4, §5

The target of experiment [10] is T10, αE137Gβ GABAAR (Rattus norvegicus, UniProt P62813+P63138, E164G).
T10 construct: expressed in transfected cells; host or cells: HEK293
The experiment in a line: Patch clamp, HEK293, mutant α1β2 GABAAR. Conditions: HEK293, read-out: Glutamate potentiation of GABA currents, % of control, normalized to wild-type α1β2. As to the method: as §6, §3, §4, §5

The target of experiment [11] is T11, αK155Dβ GABAAR (Rattus norvegicus, UniProt P62813+P63138, K182D).
T11 construct: expressed in transfected cells; host or cells: HEK293
The experiment in a line: Patch clamp, HEK293, mutant α1β2 GABAAR. Conditions: HEK293, read-out: Glutamate potentiation of GABA currents, % of control, normalized to wild-type α1β2. On the procedure:
as §6, §3, §4, §5

Experiment [12] concerns the target T12, αK104Dβ GABAAR (Rattus norvegicus, UniProt P62813+P63138, K131D).
T12 construct: expressed in transfected cells; host or cells: HEK293
The experiment in a line: Patch clamp, HEK293, mutant α1β2 GABAAR. Conditions: HEK293, read-out: Glutamate potentiation of GABA currents, % of control, normalized to wild-type α1β2. As to the method:
as §6, §3, §4, §5

In experiment [13] the target is T13, α2/β2/γ2 GABAARs (Rattus norvegicus, UniProt P23576+P63138).
T13 construct: expressed in transfected cells; host or cells: HEK293
The experiment in a line: Patch clamp, HEK293, α2-containing GABAAR. Conditions: wild-type α2/β2/γ2.

T4 sequence (P62813 28-455 E164D): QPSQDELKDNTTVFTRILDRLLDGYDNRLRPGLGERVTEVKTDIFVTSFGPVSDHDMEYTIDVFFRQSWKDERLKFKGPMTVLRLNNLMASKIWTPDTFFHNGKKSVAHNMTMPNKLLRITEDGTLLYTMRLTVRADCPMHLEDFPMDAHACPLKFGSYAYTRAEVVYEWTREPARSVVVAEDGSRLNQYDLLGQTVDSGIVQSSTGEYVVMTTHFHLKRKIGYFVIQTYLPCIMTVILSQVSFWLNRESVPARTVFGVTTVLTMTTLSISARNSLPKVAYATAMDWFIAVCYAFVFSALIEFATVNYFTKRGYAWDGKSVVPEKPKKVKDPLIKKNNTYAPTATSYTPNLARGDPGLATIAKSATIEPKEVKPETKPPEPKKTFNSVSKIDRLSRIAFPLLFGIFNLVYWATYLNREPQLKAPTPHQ
T4 sequence (P63138 26-474): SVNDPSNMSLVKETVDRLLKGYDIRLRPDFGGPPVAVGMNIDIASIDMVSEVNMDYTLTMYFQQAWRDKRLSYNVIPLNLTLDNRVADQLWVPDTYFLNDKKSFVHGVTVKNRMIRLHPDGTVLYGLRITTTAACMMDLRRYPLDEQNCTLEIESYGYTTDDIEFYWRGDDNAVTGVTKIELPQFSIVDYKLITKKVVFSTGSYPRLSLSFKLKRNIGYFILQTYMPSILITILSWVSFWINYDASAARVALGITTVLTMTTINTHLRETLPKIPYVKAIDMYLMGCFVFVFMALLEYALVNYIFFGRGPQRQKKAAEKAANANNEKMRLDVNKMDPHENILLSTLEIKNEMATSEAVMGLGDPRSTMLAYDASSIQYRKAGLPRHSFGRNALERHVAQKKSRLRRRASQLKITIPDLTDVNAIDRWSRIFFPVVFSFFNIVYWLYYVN
T4 sequence (P18508 39-466 partner): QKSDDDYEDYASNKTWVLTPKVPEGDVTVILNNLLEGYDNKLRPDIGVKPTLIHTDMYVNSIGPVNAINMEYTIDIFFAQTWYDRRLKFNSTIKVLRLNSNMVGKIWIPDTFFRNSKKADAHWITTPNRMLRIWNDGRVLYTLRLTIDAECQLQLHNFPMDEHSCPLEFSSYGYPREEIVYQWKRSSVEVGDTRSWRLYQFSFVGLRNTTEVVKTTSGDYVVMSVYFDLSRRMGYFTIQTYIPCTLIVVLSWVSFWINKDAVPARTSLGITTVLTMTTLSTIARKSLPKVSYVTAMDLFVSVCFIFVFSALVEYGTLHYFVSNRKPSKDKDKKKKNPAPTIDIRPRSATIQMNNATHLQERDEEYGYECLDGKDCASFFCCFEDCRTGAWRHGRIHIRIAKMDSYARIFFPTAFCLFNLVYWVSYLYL
T11 sequence (P62813 28-455 K182D): as the sequence (P62813 28-455 E164D) above, with D137E, K155D counted along it
T11 sequence (P63138 26-474): as the sequence (P63138 26-474) above
T3 sequence (P62813 28-455 K131W): as the sequence (P62813 28-455 E164D) above, with K104W, D137E counted along it
T3 sequence (P63138 26-474): as the sequence (P63138 26-474) above
T3 sequence (P18508 39-466 partner): as the sequence (P18508 39-466 partner) above
T7 sequence (P62813 28-455 K182W): as the sequence (P62813 28-455 E164D) above, with D137E, K155W counted along it
T7 sequence (P63138 26-474): as the sequence (P63138 26-474) above
T7 sequence (P18508 39-466 partner): as the sequence (P18508 39-466 partner) above
T2 sequence (P62813 28-455 E164W): as the sequence (P62813 28-455 E164D) above, with D137W counted along it
T2 sequence (P63138 26-474): as the sequence (P63138 26-474) above
T2 sequence (P18508 39-466 partner): as the sequence (P18508 39-466 partner) above
T5 sequence (P62813 28-455 K182R): as the sequence (P62813 28-455 E164D) above, with D137E, K155R counted along it
T5 sequence (P63138 26-474): as the sequence (P63138 26-474) above
T5 sequence (P18508 39-466 partner): as the sequence (P18508 39-466 partner) above
T6 sequence (P62813 28-455): as the sequence (P62813 28-455 E164D) above, with D137E counted along it
T6 sequence (P63138 26-474 E206W): as the sequence (P63138 26-474) above, with E181W counted along it
T6 sequence (P18508 39-466 partner): as the sequence (P18508 39-466 partner) above
T9 sequence (P62813 28-455): as the sequence (P62813 28-455 E164D) above, with D137E counted along it
T9 sequence (P63138 26-474 E206G): as the sequence (P63138 26-474) above, with E181G counted along it
T1 sequence (P62813 28-455): as the sequence (P62813 28-455 E164D) above, with D137E counted along it
T1 sequence (P63138 26-474 E206D): as the sequence (P63138 26-474) above, with E181D counted along it
T1 sequence (P18508 39-466 partner): as the sequence (P18508 39-466 partner) above
T10 sequence (P62813 28-455 E164G): as the sequence (P62813 28-455 E164D) above, with D137G counted along it
T10 sequence (P63138 26-474): as the sequence (P63138 26-474) above
T12 sequence (P62813 28-455 K131D): as the sequence (P62813 28-455 E164D) above, with K104D, D137E counted along it
T12 sequence (P63138 26-474): as the sequence (P63138 26-474) above
T13 sequence (P23576 29-451): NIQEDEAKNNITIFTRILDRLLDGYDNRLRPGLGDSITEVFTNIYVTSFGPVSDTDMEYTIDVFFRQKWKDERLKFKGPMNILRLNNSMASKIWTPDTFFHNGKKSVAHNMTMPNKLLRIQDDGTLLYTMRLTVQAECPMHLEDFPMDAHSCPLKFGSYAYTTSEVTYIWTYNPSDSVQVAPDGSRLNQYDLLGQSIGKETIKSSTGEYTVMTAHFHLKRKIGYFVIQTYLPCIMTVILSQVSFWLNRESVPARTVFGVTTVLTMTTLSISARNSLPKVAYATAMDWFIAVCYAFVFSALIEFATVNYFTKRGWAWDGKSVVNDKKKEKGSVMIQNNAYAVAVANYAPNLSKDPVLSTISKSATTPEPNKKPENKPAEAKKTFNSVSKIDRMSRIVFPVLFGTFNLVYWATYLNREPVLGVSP
T13 sequence (P63138 26-474): as the sequence (P63138 26-474) above
T13 sequence (P18508 39-466 partner): as the sequence (P18508 39-466 partner) above
T8 sequence (P62813 28-455): as the sequence (P62813 28-455 E164D) above, with D137E counted along it
T8 sequence (P63079 26-473): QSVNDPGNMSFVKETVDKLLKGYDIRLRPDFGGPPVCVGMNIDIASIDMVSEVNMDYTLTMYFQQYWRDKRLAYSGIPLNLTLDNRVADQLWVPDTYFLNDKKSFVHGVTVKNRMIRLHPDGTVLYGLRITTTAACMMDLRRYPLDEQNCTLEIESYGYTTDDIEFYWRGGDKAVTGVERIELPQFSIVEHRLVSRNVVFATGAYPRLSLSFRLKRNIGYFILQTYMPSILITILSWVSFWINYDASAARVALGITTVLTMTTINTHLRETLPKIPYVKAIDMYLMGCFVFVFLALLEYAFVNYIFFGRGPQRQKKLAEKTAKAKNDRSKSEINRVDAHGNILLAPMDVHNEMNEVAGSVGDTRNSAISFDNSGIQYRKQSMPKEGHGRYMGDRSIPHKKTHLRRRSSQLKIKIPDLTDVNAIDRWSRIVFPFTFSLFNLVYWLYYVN
T8 sequence (P18508 39-466 partner): as the sequence (P18508 39-466 partner) above

As to `N[C@@H](CCC(=O)O)C(=O)O` [glutamate, Glutamate], the activity at 100 µM in [1] (Glu 100 μM) was found to be 155 ± 39.5%; in experiment [2] (Glu 100 μM), 14.7 ± 6.3%; in experiment [3] (Glu 100 μM), 17.8 ± 15.3%; in [4] (Glu 100 μM), 106 ± 18.3%; in experiment [5] (Glu 100 μM), 88.4 ± 22.5%; in [6] (Glu 100 μM) it was 5.4 ± 4.9%. For the same compound, the activity at 100 µM is 4 ± 4.7% in experiment [7] (Glu 100 μM); 51.2 ± 9.5% in experiment [9] (Glu 100 μM); 109 ± 30.2% in [10] (Glu 100 μM); 76.3 ± 10.5% in experiment [11] (Glu 100 μM); 48.8 ± 9.5% in experiment [12] (Glu 100 μM). Moreover, the activity at 1000 µM in experiment [1] (Glu 1 mM) was 102 ± 24.5%; in experiment [2] (Glu 1 mM), 21.1 ± 4.4%; in [3] (Glu 1 mM), 50.8 ± 17.2%; in experiment [4] (Glu 1 mM), 91.5 ± 15.4%; in experiment [5] (Glu 1 mM) it was 106 ± 20.4%; in experiment [6] (Glu 1 mM) it was 7.6 ± 4.3%. In addition, the activity at 1000 µM in experiment [7] (Glu 1 mM) is 29.9 ± 8.8%; in [9] (Glu 1 mM), 50.6 ± 8.4%; in experiment [10] (Glu 1 mM), 88.4 ± 5.9%; in [11] (Glu 1 mM), 90.1 ± 11.3%; in [12] (Glu 1 mM) it was 94.7 ± 20.7%. In experiment [8], the “potentiation of GABA-induced currents by glutamate” value is “could also potentiate GABA-induced currents”. In addition, the “potentiation of GABA currents by glutamate” value in [13] was “capable of potentiating GABA currents”.
